These results are taken from paper PMC6265740, “Biochemical and Anti-Triple Negative Metastatic Breast Tumor Cell Properties of Psammaplins” (Marine Drugs, 2018).

Assay [1] relates to MDA-MB-231. Set-up: method as in PMID 28574600. As to conditions: embryonic zebrafish, xenografts, and orthotopic tumor models ref 38; cited from earlier work.
Assay [2] concerns MDA-MB-231. Set-up: method as in PMID 28574600. As to conditions: in vitro ref 38; cited from earlier work.
In assay [3] the test system is SIRT1. Set-up: method as in PMID 25445714, PMID 27537898. As to conditions: breast tumor cells ref 36,37; cited from earlier work.
Assay [4] concerns T47D, MDA-MB-231, LM, BoM, BrM cells. The assay can be described thus: Clonogenic assay. As to conditions: 24 h exposure, 10 days; 1 µM paclitaxel and TSA, 10 µM 1–5. The class given is cell-based, human. On the procedure:
The effects of psammaplins on the colony-forming ability of single cells were assessed in a clonogenic assay. Cells seeded at low density were exposed to test compounds at the specified concentrations for 24 h. The conditioned media were replaced with growth media and the colonies formed from surviving single cells in 10 days.
Figure 4 Effects of 1–5 and TSA (trichostatin A) on colony formation. Cells plated at low density were exposed to compounds (24 h) at specified concentrations (1 µM for paclitaxel and TSA, and 10 µM for 1–5). After a period of ten days, the cells were fixed and stained.
For the clonogenic assay, exponentially grown cells were seeded at the density of 1000 cells/well into 6-well plates (Cellstar®, Greiner Bio-One GmbH, Kremsmünster, Austria) and incubated at 37 °C for 4 h to allow the cells to adhere. Compound addition was similar as above. After 24 h, the compound-containing conditioned media were replaced with fresh medium containing FBS (10%) and antibiotics. The incubation continued for another 10 days with a change of fresh medium every 5 days, the cells were fixed with methanol and stained with crystal violet (1 mg/mL in 20% ethanol), and the images were acquired with a Kodak digital camera.

Assay [5] has as its system BoM spheroids. The assay can be described thus: Cultrex 3D spheroid cell invasion assay. The class given is cell-based, human. As to conditions: 96 h, in comparison to the HDAC inhibitors. On the procedure:
In order to form metastatic lesions, metastasis-initiating tumor cells must invade and intravasate into the lymphatic vasculature and/or blood vessels. Psammaplins were evaluated in a Cultrex® 3-D cell invasion assay that monitors the invasion and migration of tumor cells grown as spheroids, which closely model in vivo pathophysiological conditions.
Figure 5 Inhibition of bone metastatic BoM cell invasion. Tumor cell spheroids formed in a special spheroid formation extracellular matrix (ECM) were embedded in an invasion matrix containing 10% fetal bovine serum (FBS) in the presence and absence of compounds at the specified concentrations. Four days later (T96), cell invasion was recorded microscopically (the bar at the bottom right represents 100 µm).
The 3D spheroid cell invasion assay was performed using a commercial kit, following the manufacturer’s instructions (Cultrex® 3D Spheroid Cell Invasion Assay, Trevigen, Gaithersburg, MD, USA). Briefly, exponentially grown MDA-MB-231, LM, BoM, and BrM cells were trypsinized, collected, and resuspended in serum-free DMEM/F12 media. For spheroid formation, 3000 cells were added in a volume of 50 µL serum-free DMEM/F12 media with 1× spheroid formation solution/well into a pre-cooled 96-well plate. The plate was centrifuged at 100× g for 5 min at 4 °C, incubated at 37 °C for 24 h, and the spheroids imaged using an Axiovert 40 CFL microscope (Zeiss, Oberkochen, Germany). The plate was placed on ice, the invasion mix added in a volume of 50 µL/well, centrifuged at 350× g for 5 min at 4 °C, and incubated at 37 °C for 1 h. Test compounds and controls were diluted to two times the final concentrations in DMEM/F12 media supplemented with FBS (10%) and antibiotics, and added in a volume of 100 µL/well. The incubation continued for another 4 days at 37 °C and the cells/spheroids imaged (T96).

Take `C=CCSSSCC=C` [Garlic diallyl trisulfide, diallyl trisulfide]: the MDA-MB-231 metastatic potential result in assay [1] is on record as “suppress MDA-MB-231 metastatic potential”. Besides, in assay [2], the “MDA-MB-231 migration and angiogenesis” value was “inhibited MDA-MB-231 migration and angiogenesis”. For `O=C(NCCSSCCNC(=O)/C(Cc1ccc(O)c(Br)c1)=N/O)/C(Cc1ccc(O)c(Br)c1)=N/O` [Psammaplin A], the “SIRT1 enzyme expression and activity” value in assay [3] was “decreased SIRT1 enzyme expression and activity”. For `CC(=O)O[C@H]1C(=O)[C@@]2(C)[C@H]([C@H](OC(=O)c3ccccc3)[C@]3(O)C[C@H](OC(=O)[C@H](O)[C@@H](NC(=O)c4ccccc4)c4ccccc4)C(C)=C1C3(C)C)[C@]1(OC(C)=O)CO[C@@H]1C[C@@H]2O` [paclitaxel], in assay [4], the colony formation result is “blocked colony formation in all cell lines”. For the same molecule, the “size of the spheroids” value in assay [5] is given as “more pronounced decrease in the size of the spheroids”.
